Measurements as given in US7893046B2, “Therapeutic or prophylactic agent for leukemia” (Toray Industries, Inc., priority 2006, dated 2011).

Legend:
Assay type in all cases: in vivo
[1] = tested on: mouse leukemia cell line 1629B; assay: Mouse leukemia model, survival time and leukocytes in peripheral blood, dosing from Day 21 after transfer of 1629B cells; details: SCID mice, 100 mg/kg orally every day from Day 21 after transfer; for reduction ratio of increase in the number of leukocytes in peripheral blood: Day 35 after the transfer; for survival time prolonged to (Day after the transfer of leukemia cells): untreated mice died on Day 36
Description: This method was carried out in accordance with the literature “Cancer Cell., 4, 55-65 (2003)”.
Cells of mouse leukemia cell line 1629B were transferred into 8-week-old female SCID mice (CLEA Japan, Inc.) to develop leukemia. The compounds described in Examples 77, 78 and 84 were orally administered, respectively, at a dose of 100 mg/kg every day from Day 21 after the transfer of 1629B cells.

[2] = tested on: leukemia cells (1629B cells) in bone marrow; assay: Proliferation of leukemia cells in bone marrow in mouse leukemia model (PCR of neomycin resistance gene)
Description: Neomycin resistance gene, a marker gene for 1629B cells, was used as an index of leukemia cells (1629B cells) in bone marrow and the gene level was determined, thereby detecting the number of leukemia cells in bone marrow.
For the amplification of neomycin resistance gene, primers were prepared and PCR (reaction condition: 32 cycles of 95° C. for 30 sec, 60° C. for 30 sec, and 72° C. for 1 min) was performed using DNA extracted from bone marrow cells as a template. After the reaction, the image of PCR bands was analyzed using Gel-Pro Analyzer (MediaCybernetics).

[3] = tested on: mouse leukemia cell line 1629B; assay: Mouse leukemia model, survival rate and leukocytes in peripheral blood, dosing from the time of 1629B cell transfer; details: SCID mice, 100 mg/kg orally every day from 1629B transfer
Description: This method was carried out in accordance with the literature “Cancer Cell., 4, 55-65 (2003)”. Cells of mouse leukemia cell line 1629B were transferred into 8- or 9-week-old female SCID mice (CLEA Japan, Inc.) to develop leukemia. The compounds described in Examples 80, 81 and 83 were orally administered, respectively, at a dose of 100 mg/kg every day from the time when 1629B cells were transferred.

[4] = leukemia mice of Example 89 (100 mg/kg orally from Day 21 after transfer)
[5] = leukemia mice of Example 88 (100 mg/kg orally from the time of transfer)
[6] = Day 43 after the transfer of leukemia cells

COC1(c2ccc(/C=C/C[C@H](NC(=O)c3c(Cl)cccc3Cl)C(=O)[O-])cc2)CCOCC1.[Na+] [Example 78, (S,E)-2-(2,6-Dichlorobenzamido)-5-[4-(4-methoxytetrahydropyran-4-yl)-phenyl]pent-4-enoic Acid Sodium Salt]
reduction ratio of increase in the number of leukocytes in peripheral blood [1]: 41.0%
survival time prolonged to (Day after the transfer of leukemia cells) [1]: 43 days
reduction ratio of increase in the number of leukemia cells in bone marrow [2, 4]: 41.7%

CC(C)N(c1ccc(/C=C/C[C@H](NC(=O)c2c(Cl)cccc2Cl)C(=O)O)cc1)c1ncccn1 [Example 83, (S,E)-2-(2,6-Dichlorobenzamido)-5-[4-(isopropyl-pyrimidin-2-ylamino)phenyl]pent-4-enoic Acid]
reduction ratio of increase in the number of leukemia cells in bone marrow [2, 5]: 46.1%
reduction ratio of increase in the number of leukocytes in peripheral blood ([3]; Day 43 after the transfer): 53.1%
survival rate [3, 6]: 75.0%

CN(c1ccc(/C=C/C[C@H](NC(=O)c2c(Cl)cccc2Cl)C(=O)[O-])cc1)c1ncccn1.[Na+] [Example 81, (S,E)-2-(2,6-Dichlorobenzamido)-5-[4-(methyl-pyrimidin-2-ylamino)phenyl]pent-4-enoic Acid Sodium Salt]
reduction ratio of increase in the number of leukemia cells in bone marrow [2, 5]: 50.8%
reduction ratio of increase in the number of leukocytes in peripheral blood ([3]; Day 51 after the transfer): 60.8%
survival rate ([3]; Day 51 after the transfer of leukemia cells): 62.5%

COC1(c2ccc(/C=C/C[C@H](NC(=O)c3c(Cl)cccc3Cl)C(=O)O)cc2)CCOCC1 [Example 77, (S,E)-2-(2,6-Dichlorobenzamido)-5-[4-(4-methoxytetrahydropyran-4-yl)-phenyl]pent-4-enoic Acid]
reduction ratio of increase in the number of leukocytes in peripheral blood [1]: 41.2%
survival time prolonged to (Day after the transfer of leukemia cells) [1]: 43 days
reduction ratio of increase in the number of leukemia cells in bone marrow [2, 4]: 49.3%

CN(c1ccc(/C=C/C[C@H](NC(=O)c2c(Cl)cccc2Cl)C(=O)O)cc1)c1ncccn1 [Example 80, (S,E)-2-(2,6-Dichlorobenzamido)-5-[4-(methyl-pyrimidin-2-ylamino)phenyl]pent-4-enoic Acid]
reduction ratio of increase in the number of leukemia cells in bone marrow [2, 5]: 45.9%
reduction ratio of increase in the number of leukocytes in peripheral blood ([3]; Day 43 after the transfer): 61.6%
survival rate [3, 6]: 75.0%

CC(C)N(c1ccc(/C=C/C[C@H](NC(=O)c2c(Cl)cccc2Cl)C(=O)[O-])cc1)c1ncccn1.[Na+] [Example 84, (S,E)-2-(2,6-Dichlorobenzamido)-5-[4-(isopropyl-pyrimidin-2-ylamino)phenyl]pent-4-enoic Acid Sodium Salt]
reduction ratio of increase in the number of leukocytes in peripheral blood [1]: 49.8%
survival time prolonged to (Day after the transfer of leukemia cells) [1]: 43 days
reduction ratio of increase in the number of leukemia cells in bone marrow [2, 4]: 45.6%
